Experimental data published in patent publication US9534059B2, “TIKI inhibitors” (Children's Medical Center Corporation, priority 2012, dated 2017).

Tests used:
Format in all cases: in vivo
Tiki1 [1] = target: T1, Tiki1 (Xenopus tropicalis, UniProt F6PTN1); experiment: Tiki1MO loss-of-function phenotype scoring in embryos; details: 20 ng into two dorsal blastomeres of 8-cell stage embryos
T1 construct: Thus the endogenous Tiki1 in the Organizer acts in both Wnt-producing and Wnt-responding cells; endogenous in cells; host or cells: Xenopus embryos (dorsal blastomeres / organizer)
T1 sequence (F6PTN1 24-480): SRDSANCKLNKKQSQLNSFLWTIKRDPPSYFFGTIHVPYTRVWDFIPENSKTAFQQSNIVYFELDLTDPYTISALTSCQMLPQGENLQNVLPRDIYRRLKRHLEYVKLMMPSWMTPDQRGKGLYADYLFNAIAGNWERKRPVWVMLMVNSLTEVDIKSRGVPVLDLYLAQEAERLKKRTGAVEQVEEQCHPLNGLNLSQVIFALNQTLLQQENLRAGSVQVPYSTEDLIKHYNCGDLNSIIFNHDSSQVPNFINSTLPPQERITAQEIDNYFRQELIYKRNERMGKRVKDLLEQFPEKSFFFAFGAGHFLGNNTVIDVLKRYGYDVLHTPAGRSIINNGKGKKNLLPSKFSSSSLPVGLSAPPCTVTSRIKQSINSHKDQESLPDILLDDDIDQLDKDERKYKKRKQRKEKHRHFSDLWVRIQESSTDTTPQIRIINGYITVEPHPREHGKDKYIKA
Protocol: 20 ng of control MO, Tiki1MO or Tiki1MO together with 50 pg of HA-Tiki1 mRNA was injected into two dorsal blastomeres at the 8-cell stage and the phenotype was scored at stage 42. Lateral view (left) and dorso-anterior view (right) are shown. Con, control.
(C) Statistical data of the Tiki1MO phenotype.
(§1) 20 ng of Tiki1MO were injected into two dorsal blastomeres of 8-cell stage embryos. […] Co-injection of HA*Tiki1 mRNA rescued Tiki1MO phenotypes (FIGS. 3B and 3C). Supporting a role of Tiki1 in Wnt inhibition during head formation, Dkk1 mRNA injection also rescued Tiki1MO anterior deficiency phenotypes (FIG. 3E).

Tiki1 [2] = target: T1, Tiki1; experiment: MO block of Tiki1 protein synthesis in animal caps, Western blotting; details: animal caps stage 10
Protocol: (A) 500 pg mRNA for Tiki1-FLAG (targeted by MO) or HA*Tiki1 (resistant to MO) were injected with or without the Tiki1MO (5, 10, 20, 40 ng) into the animal pole at the 2-cell stage, and animal caps were dissected at stage 10 for Western blotting. MO, morpholino antisense oligonucleotide.
as §1

Tiki1 [3] = target: T1, Tiki1; experiment: Time course of Goosecoid expression in MO-injected embryos, whole mount in situ hybridization (FIG. 3G)
Protocol: (G) Tiki1MO reduced SO-specific Goosecoid expression at stage 11 but not prior to stage 10.5. Time course of Gsc expression was examined between stage 8.5 and 11. 20 ng of Tiki1MO or control MO was injected into two dorsal blastomeres at the 8-cell stage. After Injection embryos were cultured at 22° C. till indicated stages, and were subjected to whole mount in situ hybridization (vegetal view with dorsal up).
Procedures for embryo manipulation, reverse transcription PCR and in situ hybridization were performed as previously described (Tamai et al., 2000). The arrayed Xenopus tropicalis full length cDNAs (Voigt et al., 2005) were used for the screening as performed previously (Kato et al., 2002). cDNA pools (in the CS107 vector) that contain 96 independent clones were transcribed in vitro using SP6 polymerase, and the resulting mRNA pools were injected into the dorsal side of the embryo at 4-cell stage at the dose of 10 ng RNA/embryo. Injected embryos were scored at stage 30-31 for enlarged or diminished anterior development. The positive pools were divided into smaller pools and the same process was repeated till a single cDNA was identified.
The following morpholino oligonucleotides were used: Tiki1 MO: 5′-[…]-3′ (SEQ ID NO:33); standard control MO: 5′-[…]-3′ (SEQ ID NO:34) (Gene Tools, LLC). RT-PCR primers for XTiki1: Forward, 5′-[…]-3′(SEQ ID NO:35), Reverse, 5′-[…]-3′(SEQ ID NO:36); human TIKI1: Forward, 5′-[…]-3′(SEQ ID NO:37), Reverse, 5′-[…]-3′(SEQ ID NO:38); human TIKI2: Forward, 5′-[…]-3′(SEQ ID NO:39), Reverse, 5′-[…]-3′(SEQ ID NO:40).
Further, injection of Tiki1MO in two dorsal blastomeres of 8-cell stage embryos suppressed the expression of head organizer genes including Goosecoid (Gsc), Lim1, Otx2, and Dkk1 in gastrula stage embryos (stages 10.5-11) (FIG. 3D and Table 1). […] HA*Tiki1 mRNA injection rescued the effect of Tiki1MO on all head organizer genes examined (FIG. 3D and Table 1). […] Consistently, Tiki1 inhibited Xwnt8 posterizing effect when both were co-expressed dorsally via injected plasmids, which zygotically express Tiki1 and Xwnt8, respectively, after mid-blastula transition (FIG. 3H).

## Tiki1 MO: morpholino antisense oligonucleotide against Tiki1, 5′-CCAAATGATTACCATCATAGCTCAG-3′ (SEQ ID NO:33) (all phosphorodiamidate morpholino (PMO))
Tiki1 [1]
  Injected embryos that developed anterior defects: roughly 50%
Tiki1 [2]; 5, 10, 20, 40 ng MO
  Synthesis of exogenously expressed Tiki1-FLAG: specifically blocked the synthesis
Tiki1 [2]
  Synthesis of HA*Tiki1 (mRNA lacking the MO complementary sequence): unable to block the synthesis
Tiki1 [3]; stage 8.5, 20 ng MO
  Whole embryos displaying change in Goosecoid expression: Absent, Percentage (%): 0%
  Whole embryos displaying change in Goosecoid expression: NC (No Change), Percentage (%): 100%
  Whole embryos displaying change in Goosecoid expression: Reduced, Percentage (%): 0%
Tiki1 [3]; stage 9.5, 20 ng MO
  Whole embryos displaying change in Goosecoid expression: Absent, Percentage (%): 13%
  Whole embryos displaying change in Goosecoid expression: NC (No Change), Percentage (%): 87%
  Whole embryos displaying change in Goosecoid expression: Reduced, Percentage (%): 0%
Tiki1 [3]; stage 10, 20 ng MO
  Whole embryos displaying change in Goosecoid expression: Absent, Percentage (%): 15%
  Whole embryos displaying change in Goosecoid expression: NC (No Change), Percentage (%): 85%
  Whole embryos displaying change in Goosecoid expression: Reduced, Percentage (%): 0%
Tiki1 [3]; stage 10.5, 20 ng MO
  Whole embryos displaying change in Goosecoid expression: Absent, Percentage (%): 5%
  Whole embryos displaying change in Goosecoid expression: NC (No Change), Percentage (%): 80%
  Whole embryos displaying change in Goosecoid expression: Reduced, Percentage (%): 15%
Tiki1 [3]; stage 11, 20 ng MO
  Whole embryos displaying change in Goosecoid expression: Absent, Percentage (%): 48%
  Whole embryos displaying change in Goosecoid expression: NC (No Change), Percentage (%): 27%
  Whole embryos displaying change in Goosecoid expression: Reduced, Percentage (%): 25%
